Results published in PubChem BioAssay (NCI).
“And” between values parts separate entries of the source, which are not always exact repeats. Equal entries are not always repeated.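 Step 1: Grow cells in 96-well plates. Step 2: Expose to compound for 48 hours at 5 concentrations. Step 3: Interpolate endpoints linearly; if unreached, use highest concentration. The concentration for 50% growth inhibition is given as GI50. Definition used: TGI = concentration required for complete inhibition of growth.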

Assays:
Test in all cases: NCI anticancer screen, dose series, 48 h
A498 renal = system: A498 renal
UO-31 renal = system: UO-31 renal
OVCAR-3 ovarian = system: OVCAR-3 ovarian
M19-MEL melanoma = system: M19-MEL melanoma
HOP-18 NSCLC = system: HOP-18 NSCLC
HOP-92 NSCLC = system: HOP-92 NSCLC
MCF7 breast = system: MCF7 breast
BT-549 breast = system: BT-549 breast
DU-145 prostate = system: DU-145 prostate
MDA-MB-231 breast = system: MDA-MB-231 breast

SMILES | TGI (A498 renal) | TGI (UO-31 renal) [µM] | TGI (OVCAR-3 ovarian) [µM] | TGI (M19-MEL melanoma) [µM] | TGI (HOP-18 NSCLC) [µM] | TGI (HOP-92 NSCLC) [µM] | TGI (MCF7 breast) [µM] | TGI (BT-549 breast) | TGI (DU-145 prostate) [µM] | TGI (MDA-MB-231 breast) | GI50 (A498 renal) | GI50 (MCF7 breast) | GI50 (BT-549 breast) | GI50 (DU-145 prostate) | GI50 (UO-31 renal) | GI50 (OVCAR-3 ovarian) | GI50 (HOP-92 NSCLC) | GI50 (MDA-MB-231 breast)
O=c1c2cc(Br)ccc2[nH]c(=S)n1-c1ccccc1 | > 100 µM | > 100 | > 100 | > 100 | > 100 | > 100 | – | – | – | – | – | – | – | – | – | – | – | –
Cc1nn2c(=O)n(-c3cccc(-n4nnc5c(-c6ccccc6)c(C)nn5c4=O)c3C)nnc2c1-c1ccccc1 | > 100 µM | > 100 | 44.3 | > 100 | > 100 | > 100 | – | – | – | – | – | – | – | – | – | – | – | –
CC(C)(C)C1CCC(CI)(N=[N+]=[N-])CC1 (configuration not stated) | > 100 µM | > 100 | > 100 | > 100 | > 100 | > 100 | – | – | – | – | – | – | – | – | – | – | – | –
CN(C)CCCNC(=O)c1cccc2nc3ccccc3nc12 | 39.6 µM | > 71 | > 59.5 | 16.4 | > 86.9 | > 78.4 | – | – | – | – | – | – | – | – | – | – | – | –
O=C(NCCSSCCNC(=O)/C(Cc1ccc(O)c(Br)c1)=N/O)/C(Cc1ccc(O)c(Br)c1)=N/O | 14.7 µM | 8.58 | 6.06 | – | – | 22.9 | 8.21 | 15 µM | 12.7 | 8.26 µM | – | – | – | – | – | – | – | –
Cc1ccc(-n2nnc3c(sc4ccccc43)c2=O)cc1 | > 100 µM | 7.75 | > 100 | – | – | 6.82 | > 100 | > 100 µM | > 100 | > 100 µM | 30.9 µM | 43.7 µM | > 100 µM | 7.41 µM | 2.24 µM | 17 µM | 1.54 µM | 4.04 µM
O=C(NC1CCNCC1)c1[nH]ncc1NC(=O)c1c(Cl)cccc1Cl | 1.77 µM and 1.78 µM | > 76.6 | > 27.9 | – | – | 0.671 | > 100 | 7.89 µM | > 23.6 | 2.07 µM and > 3.95 µM | 0.552 µM and 0.698 µM | 0.198 µM and 0.18 µM | 0.588 µM and 0.471 µM | 0.417 µM and 0.472 µM | 16.7 µM and > 7.2 µM | 0.325 µM and 0.386 µM | 0.323 µM and 0.222 µM | 0.312 µM and 0.276 µM
CC[C@@]1(OC(=O)C(N)CCC(=O)O)C(=O)OCc2c1cc1n(c2=O)Cc2cc3ccccc3nc2-1 (some centres not stated) | 0.965 µM | 0.746 | 2.07 | 1.49 | – | 1.57 | > 100 | > 100 µM | 0.0504 | 5.82 µM | – | – | – | – | – | – | – | –
O=Cc1c[nH]c2ccc(-c3csc4ccccc34)cc12 | 9.44 µM | > 100 | 5.03 | – | – | 84.7 | > 100 | 8.75 µM | 22.2 | > 100 µM | 2.86 µM | 3.48 µM | 2.5 µM | 3.18 µM | 8.04 µM | 2.01 µM | 7.06 µM | 6.28 µM
NC(Cn1ccc(=O)c(O)c1)C(=O)O (configuration not stated) | > 100 µM | > 100 | > 100 | – | – | > 100 | > 100 | > 100 µM | > 100 | > 100 µM | – | – | – | – | – | – | – | –
CS(=O)/C(C#N)=C\C=C\c1cccc(Cl)c1 (configuration not stated) | 25 µM | 6.56 | 10.1 | – | – | 7 | 5.72 | 11.9 µM | 3.32 | 11.7 µM | 12.4 µM | 0.579 µM | 2 µM | 1.45 µM | 1.97 µM | 2.45 µM | 2.93 µM | 2.73 µM
Cc1cc(NS(=O)(=O)c2ccc(NC(=O)COc3ccc(-c4cc5ccccc5[nH]4)cc3)cc2)no1 | 6.58 µM | 3.76 | 3.75 | – | – | 3.83 | 4.69 | 5.97 µM | 5.18 | 4.37 µM | 1.7 µM | 2.08 µM | 2.12 µM | 2.22 µM | 1.41 µM | 1.72 µM | 1.3 µM | 1.66 µM
CC[C@@]1(O)C(=O)OCc2c1cc1n(c2=O)Cc2cc3c(Cl)c4c(cc3nc2-1)OCO4 | 0.309 µM and 1.19 µM | – | > 100 | – | – | 0.0801 | 0.193 | 0.897 µM and 0.382 µM | > 100 | > 100 µM | 0.00182 µM | – | < 0.001 µM | < 0.001 µM | < 0.001 µM | 0.653 µM and 1.77 µM | < 0.001 µM | 0.00975 µM and 0.0722 µM
C/C(=C\CCc1ccsc1)CC/C=C(\C)CCCN1CCN(CCO)CC1 | 7.51 µM | 20.5 | 11.2 | – | – | 7.48 | 8.56 | 10.9 µM | 19.6 | 4.18 µM | 2.45 µM | 2.85 µM | 2.78 µM | 6.96 µM | 4.95 µM | 3.16 µM | 1.73 µM | 1.6 µM
CC(=O)Nc1c(I)c(C(=O)O)c(I)c(N(C)C(C)=O)c1I | > 100 µM | > 100 | > 100 | – | – | > 100 | > 100 | > 100 µM | > 100 | > 100 µM | > 100 µM | > 100 µM | > 100 µM | > 100 µM | > 100 µM | > 100 µM | > 100 µM | > 100 µM
COC(=O)[C@H]1CC(=O)C=C2CCCC21 (some centres not stated) | > 100 µM | > 100 | > 100 | > 100 | – | > 100 | – | – | – | – | – | – | – | – | – | – | – | –
CC1(C)C(=O)CCC(=O)C(C)(C)C2=CC=C(O2)C(C)(C)C(=O)CCC(=O)C(C)(C)C2=CC=C1O2 | > 100 µM | – | > 100 | > 100 | > 100 | > 100 | – | – | – | – | – | – | – | – | – | – | – | –
Cc1cc(N2CCN(C)CC2)nc(N(CCNc2ccnc3cc(Cl)ccc23)Cc2ccco2)n1 | 17.3 µM | 11.9 | 9.95 | – | – | 14.9 | 6.89 | 11.8 µM | 19 | 7.84 µM | 4.79 µM | 2.12 µM | 2.94 µM | 5.94 µM | 2.66 µM | 2.62 µM | 3.1 µM | 2.46 µM
Cc1ccc(-c2c3c(N)nc(-c4ccncc4)nc3nc3c2c(C)nn3-c2ccccc2)cc1 | > 37.5 µM | > 37.5 | 20.1 | – | – | 22 | 24.4 | 17.9 µM | 20.7 | 13.4 µM | 5.81 µM | 3.63 µM | 7.38 µM | 5.08 µM | > 37.5 µM | 7.65 µM | 5.61 µM | 4.51 µM
